Test: Solubility of FDKP as a function of pH
Format: physicochemical

O=C(O)/C=C/C(=O)NCCCCC1NC(=O)C(CCCCNC(=O)/C=C/C(=O)O)NC1=O (centres unmarked) [FDKP, bis-3,6-(N-fumaryl-4-aminobutyl)-2,5-diketo-diketopiperazine]
solubility (at neutral or basic pH): readily soluble | solubility (in acid): low solubility

Reference: patent US8778403B2, “Diketopiperazine microparticles with defined specific surface areas” (MannKind Corporation, priority 2009, dated 2014)
